Publication PMC8998031, “A Boronated Derivative of Temozolomide Showing Enhanced Efficacy in Boron Neutron Capture Therapy of Glioblastoma” (Cells, 2022)

Experiments:
HS683 cells [1] = experiment: CCK8 cell proliferation assay; format: cell-based, Human; details: read-out: IC50 (cell viability, CCK8)
Experimental: Cell proliferation was measured with a CCK8 assay following the manufacturer’s protocol (Dojindo Molecular Technologies, Inc., Kumamoto, Japan). The IC50 was calculated using Prism software using the following algorithm: Cell Viability=100/1+10^(LogIC50−Concentration)×Hillslope

HS683 cells [2] = experiment: Clonogenic cell survival assay without BNCT; format: cell-based, Human
U251 cells = experiment: Boron uptake in U251 cells (ICP-AES); format: cell-based, Human; details: exposure of 1.99 mM BPA, 12 h
Experimental: (§1) Human GBM cells U87MG, U251, and HS683 and endothelial cell HUV-EC were obtained from the National Infrastructure of Cell Line Resource in Beijing, China. Cell lines were authenticated at the National Infrastructure of Cell Line Resource, Beijing, China. GBM cells were cultured in a DMEM medium containing 10% fetal bovine serum and 1% penicillin/streptomycin at 5% CO2 and 37 °C. HUV-EC cells were cultured in complete culture medium (Procell Life Science & Technology Co., Ltd., Wuhan, China). Cells were tested mycoplasma free using a Mycoplasma Test Kit (Cellorlab, China). All materials for cell culture were purchased from Gibco Invitrogen (Grand Island, NY, USA) unless otherwise noted.
(§2) TMZB (molecular weight, 412.21) and BPA (209.01; obtained from HEC Pharm, Dongguan, China) were made into 0.0–1.0 mg/g aqueous solutions. GBM cells and HUV-EC cells were treated with different concentrations of TMZB or BPA solutions. The drug-containing medium was removed 12 h later. The biodistribution of boron in TMZB- or BPA-treated mice was measured at the timepoint for neutron irradiation, i.e., 2 h after drug injection. Eight nude mice in each group were injected with 500 mg/kg of BPA, TMZ, or TMZB through the tail vein of the nude mice, in a 3,5-tetrazine-8-methoxy-4-phenylboronic acid-ethyl ester solution. […]

HS683 cells [3] = experiment: Boron uptake in HS683 cells (ICP-AES); format: cell-based, Human; details: series of concentrations, 12 h
Experimental: as §1, §2

HS683 cells [4] = experiment: Clonogenic cell survival assay with BNCT (neutron irradiation); format: cell-based, Human; details: total neutron fluence 2.4 ± 0.3 × 10^11 n/cm^2
Experimental: HS683 cells were prepared in a 200 μL centrifuge tube and treated with BPA or TMZB at gradient concentrations in 0.0–1.0 μg/mL for 30 min. Cells were irradiated with epithermal neutrons for approximately 30 min to achieve total neutron fluence at 2.4 ± 0.3 × 10^11 n/cm^2. After radiation, the drug-containing medium was removed, and cells were incubated in fresh medium for 12 h. A certain number of cells in a single-cell suspension were seeded into 6-well plates to grow colonies. After 2 weeks of incubation, colonies were fixed with 70% ethanol at room temperature for 10 min, stained with 0.1% crystal violet, and then dried overnight. Colonies with more than 50 cells were scored as clonogenic survivors under a bright field microscope.

[5] = In vivo boron distribution in GBM mouse model (ICP-AES); parameters: species or system nude mice; details: 50 mg 10B/kg
Experimental: (§3) Single-cell suspension with HS683 cells was prepared at 2 × 10^7 cells/mL. Nude mice were anesthetized with an intraperitoneal injection of tribromoethanol at a dose of 150 mg/kg and positioned in a stereotaxic instrument. After disinfection with 75% alcohol, the scalp was cut open with a scalpel, the bregma point was selected, and a hole was made in the mouse skull using a 1 mm cranial drill. Then, 5 μL of cell suspension was taken using a micro-injector, which was then fixed on the brain with a needle depth at 3.0 mm using a stereotaxic instrument. Three minutes later, the micro-injector was lifted by 0.5 mm to make rooms for the injection of cells at 1 μL/min. After removing the needle, the drill hole in the mice skull was then filled with bone wax, the skin incision was sutured, and the wound was disinfected with iodophor. The GBM model was established approximately 28 days after cell injection.
TMZB (molecular weight, 412.21) and BPA (209.01; obtained from HEC Pharm, Dongguan, China) were made into 0.0–1.0 mg/g aqueous solutions. GBM cells and HUV-EC cells were treated with different concentrations of TMZB or BPA solutions. The drug-containing medium was removed 12 h later. […] Eight nude mice in each group were injected with 500 mg/kg of BPA, TMZ, or TMZB through the tail vein of the nude mice, in a 3,5-tetrazine-8-methoxy-4-phenylboronic acid-ethyl ester solution. […] Cells or tissues were digested with concentrated nitric acid for the analysis of boron concentration via ICP-AES.

HS683 GBM mouse model = experiment: In vivo BNCT test, PET/CT imaging with 18F-FDG; parameters: species or system nude mice
Experimental: as §3
PET/CT imaging with 1.5 uCi/g ^18F-FDG was performed for all the mice anesthetized with 2% isoflurane at 25 °C before BNCT. Mice were anesthetized with an intraperitoneal injection of tribromoethanol at a dose of 150 mg/kg. The mice were then injected i.v. with 50 mg ^10B/kg of BPA (5% fructose solution) or the TMZB solution at 50 mg ^10B/kg or TMZ at 600 mg/kg through the tail vein. Then, 90 min later, mice were fixed in the mold and anesthetized for BNCT. Mice heads were treated with 2 kw of neutron fluence for 2 h each time and 4 times for each mouse with 2 days interval in between, to achieve a total neutron fluence of 16.5 ± 0.3 × 10^11 n/cm^2. Boron compounds were injected prior to each of the radiation fractions. PET/CT imaging was performed again 31 days after BNCT. Three-dimensional reconstructions of the PET/CT images were performed using AMIDE (Stanford University, Stanford, CA, USA). ROI, SUV values, and tumor volume were then analyzed.

N[C@@H](Cc1ccc(B(O)O)cc1)C(=O)O [BPA, boronated phenylalanine]
IC50 (HS683 cells [1]; without BNCT): 1110 µM | IC50 (HS683 cells [2]): 2310 µM

N[C@@H](Cc1ccc([10B](O)O)cc1)C(=O)O [BPA, boronated phenylalanine]
boron uptake (U251 cells): 0.126 μg/10^6 cells | boron uptake (in words) (HS683 cells [3]): low uptake | clonogenic cell death after BNCT (HS683 cells [4]; HS683, 0.239 mM BPA): 63.7% ± 6.3 | tissue of main boron accumulation ([5]; 2 h after administration): mainly accumulates in the kidney | boron concentration in mice tumors ([5]; 2 h after i.v. administration): 16.93 ± 9.75 μg B/g | boron concentration in mice tumors ([5]; 6 h after i.v. administration): 5.07 ± 1.43 μg B/g | tumor-to-blood ratio (T/B) of boron concentrations ([5]; GBM mouse model): 2.26 ± 1.56 | tumor-to-normal brain ratio (T/N) of boron concentrations ([5]; GBM mouse model): 2.61 ± 1.98 | SUV max after BNCT (HS683 GBM mouse model; 31 days after BNCT, 50 mg 10B/kg, 18F-FDG PET/CT): significantly reduced | 18F-FDG uptake in tumors after BNCT (HS683 GBM mouse model; 31 days after BNCT, compared with TMZ-treated group): significantly lower than that in the TMZ-treated group | tumor volume decrease (tumor shrinkage) after BNCT (HS683 GBM mouse model; 31 days after neutron irradiation, 50 mg 10B/kg i.v., total neutron fluence 16.5 ± 0.3 × 10^11 n/cm^2, PET/CT): 35.2%

Cn1nnc2c(C(N)=O)ncn2c1=O [TMZ, temozolomide]
IC50 (HS683 cells [1]; Homo sapiens, Hs 683, without BNCT): 284 µM | IC50 (HS683 cells [2]; Homo sapiens, Hs 683): 213 µM | clonogenic cell death after BNCT (HS683 cells [4]; HS683, 0.258 mM TMZ): 47.9% ± 6.6
